# System: MDA-231 cancer cells
# Test: Inhibition of proliferation assay: cell confluence (IncuCyte imaging)
# Assay type: cell-based
# Settings: compound at 10 uM; MDA-231 cells; IncuCyte images every 3 h over 4-5 d; relative confluence normalised to time zero
# Source text: Inhibition of Proliferation Assay
# The confluence value is a surrogate for cell proliferation and growth. The value is expressed as a percent confluence, which represents the fraction of culture dish-surface that is occupied by cells. As the number of cells in the dish increases over time due to proliferation, so will their coverage of that surface increase. Expansion of the cell population on the cell culture-dish surface and confluence have mostly a linear relationship until the cells on the plate surface begin to reach saturation or maximum density.
# Confluence is determined based on image analysis. Image based software can identify objects in the image field base on changes to pixel density in a grey scale image. The software can then assign a mask to those pixels within the object. Objects can be ‘gated’ out based on size and shape. To determine cell confluence, images of cells are first masked as objects. The surface area of the image that is masked is measured and compared to the total surface area of the culture dish surface to obtain a percent confluence.
# MDA-231 cancer cells were obtained from ATCC. Cells were cultured in Dulbecco's Modified Eagle Medium (DMEM) supplemented with 10% Fetal Bovine Serum (FBS), 2 mM Glutamax, 1 mM Non Essential Amino Acid (NEAA) solution and 1 mM sodium pyruvate. […] Final DMSO concentrations were […]. Images were acquired with an IncuCyte Live Cell Imaging microscopy (Essen Bioscience) at every 3 h under cell culture conditions with 10× objective over 4-5 d. Cell confluence was calculated from one field of view per well using the IncuCyte in-built algorithm. Relative confluence values were obtained by normalising each value to the time zero value in each sample.
row,Structure (SMILES),% Confluence [%]
1,CC[C@H]1OC(=O)[C@H](C)[C@@H](O[C@H]2C[C@@](C)(OC)[C@@H](O)[C@H](C)O2)[C@H](C)[C@@H](O[C@@H]2O[C@H](C)C[C@H](N(C)C)[C@H]2O)[C@](C)(O)C[C@@H](C)CN(C)[C@H](C)[C@@H](O)[C@]1(C)O [Azithromycin],99.1
2,"CC[C@H]1OC(=O)[C@H](C)[C@@H](O[C@H]2C[C@@](C)(OC)[C@@H](O)[C@H](C)O2)[C@H](C)[C@@H](O[C@@H]2O[C@H](C)C[C@H](N(C)C)[C@H]2O)[C@](C)(O)C[C@@H](C)CN(C(=O)CCCCC[P+](c2cc(C)cc(C)c2)(c2cc(C)cc(C)c2)c2cc(C)cc(C)c2)[C@H](C)[C@@H](O)[C@]1(C)O [Example 1, {6-[(2R,3S,4R,5R,8R,10R,11R,12S,13S,14R)-11-{[(2S,3R,4S,6R)-4-(dimethylamino)-3-hydroxy-6-methyloxan-2-yl]oxy}-2-ethyl-3,4,10-trihydroxy-13-{[(2R,4R,5S,6S)-5-hydroxy-4-methoxy-4,6-dimethyloxan-2-yl]oxy}-3,5,8,10,12,14-hexamethyl-15-oxo-1-oxa-6-azacyclopentadecan-6-yl]-6-oxohexyl}tris(3,5-dimethylphenyl)phosphoniumhexafluorophosphate(V)]",4.8
3,"CC[C@H]1OC(=O)[C@H](C)[C@@H](O[C@H]2C[C@@](C)(OC)[C@@H](O)[C@H](C)O2)[C@H](C)[C@@H](O[C@@H]2O[C@H](C)C[C@H](N(C)C)[C@H]2O)[C@](C)(O)C[C@@H](C)CN(C(=O)CCCCC[P+](c2ccccc2)(c2ccccc2)c2cccc(S(=O)(=O)O)c2)[C@H](C)[C@@H](O)[C@]1(C)O.F[P-](F)(F)(F)(F)F [Example 2, {6-[(2R,3S,4R,5R,8R,10R,11R,12S,13S,14R)-11-{[(2S,3R,4S,6R)-4-(dimethylamino)-3-hydroxy-6-methyloxan-2-yl]oxy}-2-ethyl-3,4,10-trihydroxy-13-{[(2R,4R,5S,6S)-5-hydroxy-4-methoxy-4,6-dimethyloxan-2-yl]oxy}-3,5,8,10,12,14-hexamethyl-15-oxo-1-oxa-6-azacyclopentadecan-6-yl]-6-oxohexyl}diphenyl(3-sulfophenyl)phosphoniumhexafluorophosphate(V)]",131.8
4,"CC[C@H]1OC(=O)[C@H](C)[C@@H](O[C@H]2C[C@@](C)(OC)[C@@H](O)[C@H](C)O2)[C@H](C)[C@@H](O[C@@H]2O[C@H](C)C[C@H](N(C)C)[C@H]2O)[C@](C)(O)C[C@@H](C)CN(C(=O)CCCCCCC[P+](c2ccc(F)cc2)(c2ccc(F)cc2)c2ccc(F)cc2)[C@H](C)[C@@H](O)[C@]1(C)O [Example 3, {8-[(2R,3S,4R,5R,8R,10R,11R,12S,13S,14R)-11-{[(2S,3R,4S,6R)-4-(dimethylamino)-3-hydroxy-6-methyloxan-2-yl]oxy}-2-ethyl-3,4,10-trihydroxy-13-{[(2R,4R,5S,6S)-5-hydroxy-4-methoxy-4,6-dimethyloxan-2-yl]oxy}-3,5,8,10,12,14-hexamethyl-15-oxo-1-oxa-6-azacyclopentadecan-6-yl]-8-oxooctyl}tris(4-fluorophenyl)phosphonium hexafluorophosphate(V)]",97.7
5,"CC[C@H]1OC(=O)[C@H](C)[C@@H](O[C@H]2C[C@@](C)(OC)[C@@H](O)[C@H](C)O2)[C@H](C)[C@@H](O[C@@H]2O[C@H](C)C[C@H](N(C)C)[C@H]2O)[C@](C)(O)C[C@@H](C)CN(C(=O)CCCCCCC[P+](c2ccc(OC)cc2)(c2ccc(OC)cc2)c2ccc(OC)cc2)[C@H](C)[C@@H](O)[C@]1(C)O.F[P-](F)(F)(F)(F)F [Example 5, {8-[(2R,3S,4R,5R,8R,10R,11R,12S,13S,14R)-11-{[(2S,3R,4S,6R)-4-(dimethylamino)-3-hydroxy-6-methyloxan-2-yl]oxy}-2-ethyl-3,4,10-trihydroxy-13-{[(2R,4R,5S,6S)-5-hydroxy-4-methoxy-4,6-dimethyloxan-2-yl]oxy}-3,5,8,10,12,14-hexamethyl-15-oxo-1-oxa-6-azacyclopentadecan-6-yl]-8-oxooctyl}tris(4-methoxyphenyl)phosphoniumhexafluorophosphate(V)]",7.8
6,"CC[C@H]1OC(=O)[C@H](C)[C@@H](O[C@H]2C[C@@](C)(OC)[C@@H](O)[C@H](C)O2)[C@H](C)[C@@H](O[C@@H]2O[C@H](C)C[C@H](N(C)C)[C@H]2O)[C@](C)(O)C[C@@H](C)CN(C(=O)CCCCCCC[P+](c2ccccc2-c2c(OC(C)C)cccc2OC(C)C)(C2CCCCC2)C2CCCCC2)[C@H](C)[C@@H](O)[C@]1(C)O [Example 6, [2′,6′-bis(propan-2-yloxy)-[1,1′-biphenyl]-2-yl]dicyclohexyl{8-[(2R,3S,4R,5R,8R,10R,11R,12S,13S,14R)-11-{[(2S,3R,4S,6R)-4-(dimethylamino)-3-hydroxy-6-methyloxan-2-yl]oxy}-2-ethyl-3,4,10-trihydroxy-13-{[(2R,4R,5S,6S)-5-hydroxy-4-methoxy-4,6-dimethyloxan-2-yl]oxy}-3,5,8,10,12,14-hexamethyl-15-oxo-1-oxa-6-azacyclopentadecan-6-yl]-8-oxooctyl}phosphonium hexafluorophosphate(V)]",4
7,"CC[C@H]1OC(=O)[C@H](C)[C@@H](O[C@H]2C[C@@](C)(OC)[C@@H](O)[C@H](C)O2)[C@H](C)[C@@H](O[C@@H]2O[C@H](C)C[C@H](N(C)C)[C@H]2O)[C@](C)(O)C[C@@H](C)CN(C(=O)CCCCCCC[P+](C2CCCCC2)(C2CCCCC2)C2CCCCC2)[C@H](C)[C@@H](O)[C@]1(C)O [Example 7, tricyclohexyl({8-[(2R,3S,4R,5R,8R,10R,11R,12S,13S,14R)-11-{[(2S,3R,4S,6R)-4-(dimethylamino)-3-hydroxy-6-methyloxan-2-yl]oxy}-2-ethyl-3,4,10-trihydroxy-13-{[(2R,4R,5S,6S)-5-hydroxy-4-methoxy-4,6-dimethyloxan-2-yl]oxy}-3,5,8,10,12,14-hexamethyl-15-oxo-1-oxa-6-azacyclopentadecan-6-yl]-8-oxooctyl})phosphonium hexafluorophosphate(V)]",75.3
8,"CC[C@H]1OC(=O)[C@H](C)[C@@H](O[C@H]2C[C@@](C)(OC)[C@@H](O)[C@H](C)O2)[C@H](C)[C@@H](O[C@@H]2O[C@H](C)C[C@H](N(C)C)[C@H]2O)[C@](C)(O)C[C@@H](C)CN(C(=O)CCCCCCC[P+](c2ccccc2)(c2ccccc2)c2ccccn2)[C@H](C)[C@@H](O)[C@]1(C)O [Example 8, {8-[(2R,3S,4R,5R,8R,10R,11R,12S,13S,14R)-11-{[(2S,3R,4S,6R)-4-(dimethylamino)-3-hydroxy-6-methyloxan-2-yl]oxy}-2-ethyl-3,4,10-trihydroxy-13-{[(2R,4R,5S,6S)-5-hydroxy-4-methoxy-4,6-dimethyloxan-2-yl]oxy}-3,5,8,10,12,14-hexamethyl-15-oxo-1-oxa-6-azacyclopentadecan-6-yl]-8-oxooctyl}diphenyl(pyridine-2-yl)phosphonium hexafluorophosphate(V)]",83
9,CC[C@H]1OC(=O)[C@H](C)[C@@H](O[C@H]2C[C@@](C)(OC)[C@@H](O)[C@H](C)O2)[C@H](C)[C@@H](O[C@@H]2O[C@H](C)C[C@H](N(C)C)[C@H]2O)[C@](C)(O)C[C@@H](C)CN(CCCCCC[P+](C2CCCCC2)(C2CCCCC2)C2CCCCC2)[C@H](C)[C@@H](O)[C@]1(C)O.[I-] [Example 9],70.9
10,"CC[C@H]1OC(=O)[C@H](C)[C@@H](O[C@H]2C[C@@](C)(OC)[C@@H](O)[C@H](C)O2)[C@H](C)[C@@H](O[C@@H]2O[C@H](C)C[C@H](N(C)C)[C@H]2O)[C@](C)(O)C[C@@H](C)CN(CCCCCC[P+](c2ccccc2-c2ccccc2N(C)C)(C2CCCCC2)C2CCCCC2)[C@H](C)[C@@H](O)[C@]1(C)O [Example 10, dicyclohexyl({6-[(2R,3S,4R,5R,8R,10R,11R,12S,13S,14R)-11-{[(2S,3R,4S,6R)-4-(dimethylamino)-3-hydroxy-6-methyloxan-2-yl]oxy}-2-ethyl-3,4,10-trihydroxy-13-{[(2R,4R,5S,6S)-5-hydroxy-4-methoxy-4,6-dimethyloxan-2-yl]oxy}-3,5,8,10,12,14-hexamethyl-15-oxo-1-oxa-6-azacyclopentadecan-6-yl]hexyl})[2′-(dimethylamino)-[1,1′-biphenyl]-2-yl]phosphonium iodide]",4
11,CC[C@H]1OC(=O)[C@H](C)[C@@H](O[C@H]2C[C@@](C)(OC)[C@@H](O)[C@H](C)O2)[C@H](C)[C@@H](O[C@@H]2O[C@H](C)C[C@H](N(C)C)[C@H]2O)[C@](C)(O)C[C@@H](C)CN(CCCCCCCC[P+](c2ccccc2)(c2ccccc2)c2ccc(N(C)C)cc2)[C@H](C)[C@@H](O)[C@]1(C)O.[I-] [Example 12],4.1
12,CC[C@H]1OC(=O)[C@H](C)[C@@H](O[C@H]2C[C@@](C)(OC)[C@@H](O)[C@H](C)O2)[C@H](C)[C@@H](O[C@@H]2O[C@H](C)C[C@H](N(C)C)[C@H]2O)[C@](C)(O)C[C@@H](C)CN(CCCCCCCC[P+](c2ccc(OC)cc2)(c2ccc(OC)cc2)c2ccc(OC)cc2)[C@H](C)[C@@H](O)[C@]1(C)O.[I-] [Example 13],4.8

# Same assay, conditions: compound at 100 uM; MDA-231 cells; IncuCyte images every 3 h over 4-5 d; relative confluence normalised to time zero
row,Structure (SMILES),% Confluence [%]
1,CC[C@H]1OC(=O)[C@H](C)[C@@H](O[C@H]2C[C@@](C)(OC)[C@@H](O)[C@H](C)O2)[C@H](C)[C@@H](O[C@@H]2O[C@H](C)C[C@H](N(C)C)[C@H]2O)[C@](C)(O)C[C@@H](C)CN(C)[C@H](C)[C@@H](O)[C@]1(C)O [Azithromycin],17

# Reference: patent US11427606B2, “Azithromycin derivatives containing a phosphonium ion as anticancer agents” (Rising Tide Foundation, priority 2017, dated 2022)
